# Reference: patent US12649750B2, “Macrocyclic compounds, compositions, and methods of using thereof” (Sionna Therapeutics Inc., priority 2022, dated 2026)
# Molecular target: T1, NBD1 (Homo sapiens, UniProt P13569)
# T1 construct: Purified recombinant NBD1 was produced using previously described methods; made in house
# Experiment: Aggregation analysis using differential static light scattering (DSLS), thermal stability of NBD1 (ΔTagg)
# Format: binding
# Conditions: ΔTagg versus DMSO control, NBD1 0.2 mg/ml
# Procedure: Example 386. Aggregation Analysis Using Differential Static Light Scattering (DSLS)
# Purified recombinant NBD1 was produced using previously described methods (A. Schmidt, J. L. Mendoza, P. J. Thomas (2011) Biochemical and Biophysical Approaches to Probe CFTR Structure (365-376) M. D. Amaral, K. Kunzelmann (eds.), Cystic Fibrosis, Methods in Molecular Biology 741, Springer Science+Business Media). The effect of test compounds on thermal stability of NBD1 was evaluated by differential static light scattering (DSLS) using the Harbinger Stargazer-384 instrument (Epiphyte Three, Toronto, Canada). Test compounds were dissolved and diluted to desired concentrations in 100% DMSO. The compounds or DMSO controls (100 nL) were stamped into wells of a […] low volume optical plate (Corning Inc., Corning, NY) using the Echo 555 acoustic liquid handler (Labcyte Inc., San Jose, CA).
# NBD1 protein was diluted to 0.2 mg/ml in S200 buffer (50 mM Tris-HCl, 150 mM NaCl, 5 mM MgCl2, 2 mM ATP, 2 mM DTT, pH7.6) containing 1% glycerol. 10 uL of protein solution was aliquoted into the 384-well plate harboring the test compounds and 10 uL mineral oil was overlaid onto the protein solution, using the epMotion robotic liquid handler (Eppendorf North America, Hauppauge, NY). After placing into the Stargazer instrument, the plate was heated at 1° C. per minute to 70° C. Images were captured from 25° C. to 70° C. every 0.5° C. At the end of the experiment run, instrument software integrated image files and analyzed data automatically. A […] regression curve was generated for each well, representing the increase in light scattering over time. A temperature of aggregation (Tagg) was calculated based on the inflection point of the curve. To better compare data across experiments the average Tagg for DMSO control wells was calculated and subtracted from values for wells containing compounds to obtain a “ΔTagg” value. These ΔTagg values reflect stabilizing efficacy of the compounds. As set forth in Table 2 below, an ΔTagg value less than or equal to 5° C. is marked “A”; a value above 5° C. and less than or equal to 10° C. is marked “B”; a value greater than 10° C. and less than or equal to 25° C. is marked “C”.
# T1 sequence (P13569 423-646 limits assumed): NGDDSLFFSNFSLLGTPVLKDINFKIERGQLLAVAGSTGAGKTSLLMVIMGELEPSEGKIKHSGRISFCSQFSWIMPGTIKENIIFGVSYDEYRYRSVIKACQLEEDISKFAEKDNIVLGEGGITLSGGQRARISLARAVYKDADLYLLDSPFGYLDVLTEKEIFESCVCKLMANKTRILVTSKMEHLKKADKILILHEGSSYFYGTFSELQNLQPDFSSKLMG
row,SMILES,DSLS 3D (100 μM ΔT)
1,"C[C@H](Cc1cccc([C@@]2(C)CCCC(C)(C)CS(=O)(=O)CCc3c(c(F)c(F)c4[nH]ccc34)S(=O)(=O)c3ccnc(c3)-c3nc2nn3C)c1)C(=O)O [Compound 301, (2R)-3-[3-[(6R)-21,22-difluoro-3,6,10,10-tetramethyl-12,12,24,24-tetraoxo-12λ6,24λ6-dithia-3,4,19,28,30-pentazapentacyclo[23.3.1.12,5.015,23.016,20]triaconta-1(29),2(30),4,15,17,20,22,25,27-nonaen-6-yl]phenyl]-2-methyl-propanoic Acid]",A (an ΔTagg value less than or equal to 5 °C is marked “A”)
2,"Cn1nc2nc1-c1cc(ccn1)Sc1c(F)c(F)c3[nH]ccc3c1CCS(=O)(=O)CC(C)(C)CCC[C@]2(C)c1cccc(C[C@H](O)CO)c1 [Compound 340, (2S)-3-[3-[(6R)-21,22-Difluoro-3,6,10,10-tetramethyl-12,12-dioxo-12λ6,24-dithia-3,4,19,28,30-pentazapentacyclo[23.3.1.12,5.015,23.016,20]triaconta-1(29),2(30),4,15,17,20,22,25,27-nonaen-6-yl]phenyl]propane-1,2-diol]",B (a value above 5 °C and less than or equal to 10 °C is marked “B”)
3,"C[C@@H](Cc1cccc(C2(C)CCCC(C)(C)CS(=O)(=O)CCc3c(c(F)cc4[nH]ccc34)[S+]([O-])c3ccnc(c3)-c3nc2nn3C)n1)C(=O)O (single isomer, unassigned) [Compound 315B]",A (an ΔTagg value less than or equal to 5 °C is marked “A”)
4,"C[C@@H](Cc1cccc(C2(C)CCCC(C)(C)CS(=O)(=O)CCc3c(c(F)cc4[nH]ccc34)[S+]([O-])c3ccnc(c3)-c3nc2nn3C)n1)C(=O)O (single isomer, unassigned) [Compound 315D]",B (a value above 5 °C and less than or equal to 10 °C is marked “B”)
5,"O=C(O)CCc1cccc(C2CCCCCCS(=O)(=O)CCc3c(c(F)cc4[nH]ccc34)Oc3ccc(F)c(c3)-c3ncc2[nH]3)c1 (centres unmarked) [Compound 35, 3-[3-(23,29-Difluoro-13,13-dioxo-25-oxa-13λ6-thia-3,20,31-triazapentacyclo[24.3.1.12,5.016,24.017,21]hentriaconta-1(30),2,4,16,18,21,23,26,28-nonaen-6-yl)phenyl]propanoic Acid]",C (a value greater than 10 °C and less than or equal to 25 °C is marked “C”)
6,"Cn1nc2nc1-c1cc(ccn1)Cc1c(F)c(F)c3[nH]ccc3c1CCS(=O)(=O)CC(C)(C)CCC[C@]2(C)c1cccc(CC2(C(=O)O)CC2)c1 [Compound 306, 1-[[3-[(6R)-21,22-Difluoro-3,6,10,10-tetramethyl-12,12-dioxo-12λ6-thia-3,4,19,28,30-pentazapentacyclo[23.3.1.12,5.015,23.016,20]triaconta-1(29),2(30),4,15,17,20,22,25,27-nonaen-6-yl]phenyl]methyl]cyclopropanecarboxylic Acid]",A (an ΔTagg value less than or equal to 5 °C is marked “A”)
7,"C[C@@H](Cc1cccc(C2(C)CCCC(C)(C)CS(=O)(=O)CCc3c(c(F)cc4[nH]ccc34)[S+]([O-])c3ccnc(c3)-c3nc2nn3C)n1)C(=O)O (single isomer, unassigned) [Compound 315A]",A (an ΔTagg value less than or equal to 5 °C is marked “A”)
8,"Cn1nc2nc1-c1cc(ccc1F)[S+]([O-])c1c(F)cc3[nH]ccc3c1CCS(=O)(=O)CC(C)(C)CCC[C@]2(C)c1cccc([C@H](O)CO)c1 (single isomer, unassigned) [Compound 302B]",B (a value above 5 °C and less than or equal to 10 °C is marked “B”)
9,"CC1c2ccnc(c2)-c2nc(nn2C)[C@@](C)(c2cccc(C[C@H](C)C(=O)O)c2)CCCC(C)(C)CS(=O)(=O)CCc2c1c(F)c(F)c1[nH]ccc21 (single isomer, unassigned) [Compound 316B]",A (an ΔTagg value less than or equal to 5 °C is marked “A”)
10,"Cn1nc2nc1-c1cc(ccn1)Oc1c(F)c(F)c3[nH]cc(CC(=O)O)c3c1CCS(=O)(=O)CC(C)(C)CCC[C@]2(C)c1ccccc1 [Compound 363, 2-[(6R)-21,22-Difluoro-3,6,10,10-tetramethyl-12,12-dioxo-6-phenyl-24-oxa-12λ6-thia-3,4,19,28,30-pentazapentacyclo[23.3.1.12,5.015,23.016,20]triaconta-1(29),2(30),4,15,17,20,22,25,27-nonaen-17-yl]acetic acid]",A (an ΔTagg value less than or equal to 5 °C is marked “A”)
11,"C[C@@H](Cc1cncc(C2(C)CCCC(C)(C)CS(=O)(=O)CCc3c(c(F)cc4[nH]ccc34)Oc3ccnc(c3)-c3nc2nn3C)c1)C(=O)O (single isomer, unassigned) [Compound 299B]",B (a value above 5 °C and less than or equal to 10 °C is marked “B”)
12,"Cn1nc2nc1-c1cc(ccn1)Sc1c(F)cc3[nH]cc(CC(=O)O)c3c1CCS(=O)(=O)CC(C)(C)CCC[C@]2(C)c1ccccc1 [Compound 362, 2-[(6R)-22-Fluoro-3,6,10,10-tetramethyl-12,12-dioxo-6-phenyl-12λ6,24-dithia-3,4,19,28,30-pentazapentacyclo[23.3.1.12,5.015,23.016,20]triaconta-1(29),2(30),4,15,17,20,22,25,27-nonaen-17-yl]acetic Acid]",A (an ΔTagg value less than or equal to 5 °C is marked “A”)
13,"COc1c(CCC(=O)O)cccc1C1(C)CCCC(C)(C)CS(=O)(=O)CCc2c(c(F)c(F)c3[nH]ccc23)Oc2ccc(F)c(c2)-c2nc1nn2C (centres unmarked) [Compound 373, 3-[2-Methoxy-3-(21,22,28-trifluoro-3,6,10,10-tetramethyl-12,12-dioxo-24-oxa-12λ6-thia-3,4,19,30-tetrazapentacyclo[23.3.1.12,5.015,23.016,20]triaconta-1(29),2(30),4,15,17,20,22,25,27-nonaen-6-yl)phenyl]propanoic Acid]",B (a value above 5 °C and less than or equal to 10 °C is marked “B”)
14,"C[C@H](Cc1cccc([C@@]2(C)CCCC(C)(C)CS(=O)(=O)CC(N)c3c(c(F)c(F)c4[nH]ccc34)Oc3ccc(F)c(c3)-c3nc2nn3C)c1)C(N)=O (single isomer, unassigned) [Compound 385A]",B (a value above 5 °C and less than or equal to 10 °C is marked “B”)
15,Cn1nc2nc1-c1cc(ccn1)S(=O)(=O)c1c(F)c(F)c3[nH]ccc3c1CCS(=O)(=O)CC(C)(C)CCC[C@]2(C)c1cccc(C[C@H](O)CO)c1 [Compound 342],A (an ΔTagg value less than or equal to 5 °C is marked “A”)
16,"CC(=O)NC1CS(=O)(=O)CC(C)(C)CCC[C@](C)(c2cccc(C[C@@H](C)C(=O)O)c2)c2nc(n(C)n2)-c2cc(ccc2F)Oc2c(F)c(F)c3[nH]ccc3c21 (single isomer, unassigned) [Compound 369B]",B (a value above 5 °C and less than or equal to 10 °C is marked “B”)
17,"CNC(=O)[C@@H](C)Cc1cccc([C@@]2(C)CCCC(C)(C)CS(=O)(=O)CC(NC)c3c(c(F)cc4[nH]ccc34)Sc3ccc(F)c(c3)-c3nc2nn3C)c1 (single isomer, unassigned) [Compound 368B]",A (an ΔTagg value less than or equal to 5 °C is marked “A”)
18,"CC(=O)OC[C@H](Cc1cccc([C@@]2(C)CCCC(C)(C)CS(=O)(=O)CCc3c(c(F)c(F)c4[nH]ccc34)Sc3ccnc(c3)-c3nc2nn3C)c1)OC(C)=O [Compound 339, [(2S)-2-acetoxy-3-[3-[(6R)-21,22-difluoro-3,6,10,10-tetramethyl-12,12-dioxo-12λ6,24-dithia-3,4,19,28,30-pentazapentacyclo[23.3.1.12,5.015,23.016,20]triaconta-1(29),2(30),4,15,17,20,22,25,27-nonaen-6-yl]phenyl]propyl]Acetate]",A (an ΔTagg value less than or equal to 5 °C is marked “A”)
19,"C[C@@H](Cc1cncc(C2(C)CCCC(C)(C)CS(=O)(=O)CCc3c(c(F)cc4[nH]ccc34)Oc3ccnc(c3)-c3nc2nn3C)c1)C(=O)O (single isomer, unassigned) [Compound 299A]",A (an ΔTagg value less than or equal to 5 °C is marked “A”)
20,"C[C@@H](Cc1cccc([C@@]2(C)CCCC(C)(C)CS(=O)(=O)CCc3c[nH]c4c(F)c(F)c(cc34)Oc3ccc(F)c(c3)-c3nc2nn3C)c1)C(=O)O [Compound 353, (2S)-2-Methyl-3-[3-[(12R)-6,25,26-trifluoro-9,12,16,16-tetramethyl-18,18-dioxo-2-oxa-18λ6-thia-9,10,23,29-tetrazapentacyclo[19.5.2.13,7.18,11.024,28]triaconta-1(26),3,5,7(30),8(29),10,21,24,27-nonaen-12-yl]phenyl]propanoic Acid]",A (an ΔTagg value less than or equal to 5 °C is marked “A”)
